The source of these data is PMC5372569, “A New Oleanolic Acid Derivative against CCl4-Induced Hepatic Fibrosis in Rats” (International Journal of Molecular Sciences, 2017).

“And” between values parts separate entries of the source, which are not always exact repeats. Equal entries are not always repeated.

The nature of data set [1]: Stability of Oxy-Di-OA in rat plasma and processed samples. Format: physicochemical. On the procedure:
The stability of Oxy-Di-OA was investigated by analyzing the QC samples over three levels under different conditions, including −20 °C for 10 and 20 days (long-term stability), and room temperature for one day (short-term stability). In addition, the concentration of Oxy-Di-OA would be detected in the above samples to compare with the initial value in order to determine whether it has changed or not.

Data set [2] is described as follows: Acute toxicity assay via gavage. Particulars: male, Kunming, mouse, in vivo; mice, gavage (oral administration), doses up to 2000 mg/kg. On the procedure:
(§1) According to previous studies, Oxy-Di-OA was further investigated for its approximate LD50 and 95% confidence interval (CIs) value in mice. Male Kunming mice, weighing 20 ± 2 g were randomly divided into eleven groups of six individuals matched by weight and size. The mice had fasted for 12 h, but water was allowed ad libitum before the acute toxicity experiments.
One group of mice was orally administered bean oil as a normal control. Then the other four groups of mice were given gavage of Oxy-Di-OA in doses of 200, 500, 1000, and 2000 mg/kg, respectively. The mice were observed continuously for 1 h after such treatment and then intermittently for 4 h, and thereafter over a period of 24 h. The mice were further observed for up to seven days following treatment for any signs of toxicity, death, and the latency of death. Abnormal symptoms were recorded immediately.
The acute toxicity test via gavage was evaluated by LD50.

In a further data set the test system is TGF-β1. Description: Immunohistochemical staining of TGF-β1 in liver tissue, CCl4-induced liver fibrosis. The settings on record: nine weeks, CCl4 rats. Format: in vivo. On the procedure: (§2) After a two-week acclimation period, 52 rats were randomly divided into five groups (each group approximately consisted of ten rats). (1) Normal group: rats were fed with regular diet and distilled water and were injected intraperitoneally with olive oil (2 mL/kg body weight per day, i.p. twice per week) for nine weeks; (2) Model group: rats were feeding with the same quantity as the normal group and were injected with 40% CCl4/olive oil (2 mL/kg body weight, twice per week) for nine weeks to induce liver fibrosis; (3) Low-dose group: rats were fed with the same quantity as the normal group and were administered intraperitoneal injections with 40% CCl4/olive oil (2 mL/kg body weight, twice per week) and with a low dose (14 mg/kg body weight, once per day) Oxy-Di-OA treatment for nine weeks; (4) High-dose group: rats were fed with the same quantity as the normal group and were treated with 40% CCl4/olive oil (2 mL/kg body weight twice per week) and with a high dose (28 mg/kg body weight, once per day) Oxy-Di-OA treatment for nine weeks; (5) Positive control group: rats were fed with the same quantity as the normal group and were administered 40% CCl4/olive oil (2 mL/kg body weight, twice per week) and with bifendate (10.5 mg/kg body weight, once per day) for nine weeks.
Immunostaining was conducted as paraffin-embedded liver tissue sections of 5 µm thickness to determine the expression and distribution of TGF-β1 in the liver tissue of rats. Tissues were treated with 3% H2O2 in distilled water for 10 min to block endogenous peroxidase activity followed by another wash, and then blocked with 5% BSA blocking buffer for 20 min. Then, after endogenous peroxidase blockage, the sections were incubated with TGF-β1 primary antibody (1:50 dilution) at 4 °C overnight. The next day, they were washed three times with PBS (phosphate-buffered saline) and then incubated with HRP-labelled goat-anti-rabbit secondary antibodies at 37 °C for 30 min. […] The expression of TGF-β1 in liver tissues was analyzed under a light microscope (Olympus, Tokyo, Japan).

Data set [3] relates to CCl4-induced liver fibrosis in rats. Kind of data set: Liver and spleen indices in CCl4-induced liver fibrosis. The settings on record: mean ± SD. Format: in vivo. As to the method: as §2
(§3) At 48 h after the final injection of CCl4, all rats were anaesthetized with chloral hydrate, and the blood samples were collected from the aorta abdominalis. The serum samples were obtained by centrifugation at 3000 rpm for 15 min to obtain the supernatant and were kept frozen at −80 °C until biochemical analysis. Livers and spleens were immediately removed, rinsed in ice-cold saline, and weighed. The data were used for calculating liver and spleen indices. Then a portion of each liver was fixed in 4% buffered formaldehyde, embedded in paraffin blocks, and stained with hematoxylin-eosin (H&E) for histological and biochemical analyses. The rest of the tissues were stored at −80 °C until required.
We used the percentage of the body weight to represent relative weights of the liver and spleen, respectively. The indices of liver and spleen were expressed as Wl/Wm and Ws/Wm, respectively. The Wl and Ws represented the average liver and spleen weight of each group, respectively, and Wm was the average rat body weight of each group.

A short description of data set [4]: Pharmacokinetic study after single-dose oral administration (HPLC-UV). Format: in vivo, SD rats. Particulars: rats. On the procedure: The LC system is made up of an Agilent 1100 HPLC system (Agilent Corporation, USA) coupled with a reverse-phase Agilent TC-C18 analytical column (4.6 mm × 250 mm, 5 µm particle size). The column temperature set at 25 °C. The column used during the pharmacokinetic assay was eluted at a flow rate of 1 mL/min, and the solvent consisted of 98% methanol and 2% aqueous solution. The detection wavelength was 278 nm and the injection volume was 10 μL. Healthy SD rats had no access to food until 12 h after dose administration, while water was free to access throughout the experiments. To determine the drug concentrations and to calculate the pharmacokinetic parameters, blood was obtained from the ophthalmic vein and collected with heparinized microcentrifuge tubes. The plasma was separated by centrifuging the blood samples at 4000 rpm for 15 min. Plasma stored in a freezer at −20 °C was thawed at 4 °C before treatment. After that, 15 μL of IS (50.4 μg/mL) working solution was added to such a plasma sample (200 μL), followed by vortex-mixing for 1 min to obtain the mixture. Then we added 600 μL acetonitrile to the mixture and vortexed for 5 min. After that, the mixture was centrifuged at 12,000 rpm for 5 min at 4 °C. […] The residue was then reconstituted in 100 μL methanol, and stirred and vortexed for 1 min. The solution was centrifuged at 12,000 rpm for 5 min to obtain the supernatant. Finally, 10 μL of supernatant was injected into the HPLC system for further analysis. Oxy-Di-OA was dissolved in normal saline before using. Before administration of drug, six SD rats had no access to food overnight but water was allowed free access. A single dose (500 mg/kg) of Oxy-Di-OA solution was administered orally to rats. After that, the blood samples were collected with heparinized microcentrifuge tubes at 1, 2, 6, 8, 10, 12, 14, 16 and 20 h. Plasma was separated by centrifugation (4000 rpm, 10 min, and 15 °C) and kept at −20 °C until necessary.

In the next data set the test system is HBV (Hepatitis B Virus). Further details: method as in PMID 27023498. The settings on record: previous studies; cited from earlier work.
In data set [5] the test system is CCl4-induced liver fibrosis in rats. Kind of data set: Serum ALT and AST in CCl4-induced liver fibrosis. Format: in vivo. The settings on record: mean ± SD. As to the method:
as §2, §3
According to the corresponding manufacturer’s protocols, plasma samples were prepared after finishing animal experiments and determined using ALT and AST diagnostic kits. The ALT and AST enzyme activities were measured by the third affiliated hospital of Beijing University of Chinese Medicine (Beijing, China).

The subject of a further data set is mice. Kind of data set: Acute toxicity assay via intraperitoneal injection. Format: in vivo, Kunming mice. As to the method: as §1
(§4) The maximum suspended dose (900 mg/kg) of Oxy-Di-OA was prepared in bean oil solution. One group of mice was injected intraperitoneally with bean oil as a normal control. Then the other five groups of mice were given intraperitoneal injections of Oxy-Di-OA in doses of 178, 422, 600, 750, and 900 mg/kg, respectively. The mice were observed continuously for 1 h after such treatment and then intermittently for 4 h, and thereafter over a period of 24 h. The mice were further observed for up to seven days following treatment for any situations of poisoning and deaths and the latency of death. Some abnormal behaviors were recorded.
(§5) The acute toxicity assay via intraperitoneal injection was evaluated by LD50 and 95% CIs which were calculated by Käber assessment.

Data set [6] is described as follows: Acute toxicity assay via intraperitoneal injection. Format: in vivo, Kunming mice. Particulars: male, Kunming, mouse, in vivo, ip, mice, Käber assessment. On the procedure: as §1, §4, §5
Data set [7] relates to CCl4-induced liver fibrosis in rats. Kind of data set: Histological assessment (H&E) of livers in CCl4-induced liver fibrosis. Format: in vivo. The settings on record: nine weeks. On the procedure: as §2, §3
The mark [8] stands for this setting: high-dose group 28 mg/kg once per day.
Where [9] appears, read: low-dose group 14 mg/kg once per day.
Where [10] appears, read: dose 28 mg/kg (high dose), 28 mg/kg.
Where [11] appears, read: SD, rat, plasma, single oral dose 500 mg/kg, n = 6.
[12] abbreviates: single oral dose 500 mg/kg, n = 6.
Setting [13] is: bifendate 10.5 mg/kg once per day.

One may read the LD50 as the dose expected to kill half of the subjects tested. As a reminder, the Cmax is the maximum level reached in the sampled fluid or tissue. In general, MRT refers to the average time that molecules of a dose stay in the body. Consider `CC1(C)CCC2(C(=O)O)CC[C@]3(C)C(=CC=C4[C@@]5(C)CCC(=O)C(C)(C)[C@@H]5CC[C@]43C)C2C1` (stereo partly shown) [Oxy-Di-OA, 3-oxours-oleana-9(11), 12-dien-28-oic acid], for which, in data set [1] (freezing and thawing cycles, room temperature 24 h), the “stability in plasma biomatrix and processed samples” value is listed as “stable”. Also, the “concentration relative to the initial concentration” value in [1] (methanol solutions, room temperature for 24 h) is given as 97.46% to 100.17%. In addition, the LD50 at 7 days was over 2000 mg/kg in data set [2], 640 to 799 mg/kg in data set [6] (read-out: 95% CIs of LD50) and 715 mg/kg in data set [6] (read-out: LD50). Further, the “expression of TGF-β1 (immunohistochemical staining)” value in the data set with TGF-β1 (setting [8]) and in the data set on TGF-β1 (setting [9]) was “a lower expression of TGF-β1 compared to model group” throughout. The “Liver Index” value in [3] (dose 14 mg/kg) was 3.46 ± 0.38 %; in data set [3] (setting [10]), 3.15% ± 0.36% and 3.15 ± 0.36 *^,# %. Besides, the “Spleen Index” value in data set [3] (dose 14 mg/kg) was 0.24 ± 0.06 %; in data set [3] (setting [10]), 0.26% ± 0.05% and 0.26 ± 0.05 %. The AUC(0-t) in data set [4] (SD, rat, plasma, po, 500 mg/kg, single oral dose 500 mg/kg, n = 6, read-out: AUClast (area under the concentration-time curve from t = 0 to the last time)) is 88020 ± 660 ng·h/mL. This compound also displayed a Cmax in data set [4] (setting [11]) of 8180 ± 660 ng/mL. Moreover, the MRT in data set [4] (setting [11]) was 9.48 ± 0.48 h. Besides, the Tmax in data set [4] (SD, rat, plasma, single oral dose 500 mg/kg, n = 6, read-out: Tmax (time to reach peak concentration)) came to 10 ± 2.19 h. Further, in [4] (SD, rat, plasma, single oral dose 500 mg/kg, n = 6, read-out: t1/2 (elimination half-life) (converted)), the half-life is 2.19 ± 0.71 h. In [4] (setting [12]), this compound gave a CL of 92.9307 ± 16.544 mL/min/kg. In addition, the Vz in data set [4] (setting [12]) is recorded as 18,290.17 ± 9453.59 mL/kg. Further, in data set [4] (single oral dose 500 mg/kg, n = 6, 500 mg/kg), the “AUClast (area under the concentration-time curve from t = 0 to the last time)” value was 90210 ± 15680 ng·h/mL. Besides, the “elimination half-life compared with oleanolic acid” value in [4] (oleanolic acid data ref 27) was “longer elimination half-life than its parent compound, oleanolic acid”. Moreover, the “anti-HBV activity IC50” value in the data set with HBV (Hepatitis B Virus) is listed as 3.13 µg/mL. Further, in the data set with HBV (Hepatitis B Virus), the “inhibition of the rebound of the viral replication rate, compared with lamivudine” value is “superior to the positive drug (Lamivudine)”. The “inhibition rate of the secretion of HBsAg” value in the data set on HBV (Hepatitis B Virus) was 90.52% ± 1.78%. The “reduction rate of the secretion of HBeAg” value with HBV (Hepatitis B Virus) is reported as 42.31% ± 3.53%. The ALT in [5] (dose 14 mg/kg) was 77.58 ± 39.58 U/L; in data set [5] (dose 28 mg/kg), 67.06 ± 51.59 U/L. Also, the results for the AST in [5] (dose 14 mg/kg) and in [5] (dose 28 mg/kg) were 122.00 ± 52.19 U/L and 141.89 ± 71.57 U/L, respectively. Besides, the “dose harmless for further in vivo study” value in the data set on mice came out at 600 mg/kg. In addition, the “Death Rate” value with mice (178 mg/kg) turned out to be 0%; in the data set on mice (422 mg/kg), 0%; in the data set with mice (600 mg/kg), 0%; in the data set on mice (750 mg/kg), 67%; in the data set with mice (900 mg/kg), 83%. For the same compound, in the data set on mice (high dose, one hour after the experiment), the symptoms observed result was “slow movement and a decrease in aggressiveness”. The “histological examination of rat livers (H&E)” value in [7] (setting [8]) is “marked regression and alleviation in the abnormal areas”; in [7] (setting [9]) it was “moderate regression of morphological changes”.
As for `COC(=O)c1cc(OC)c2c(c1-c1c(C(=O)OC)cc(OC)c3c1OCO3)OCO2` [Bifendate, bifendate, reference compound], in the data set with TGF-β1 (setting [13]), the “expression of TGF-β1 (immunohistochemical staining)” value is “a low expression of TGF-β1”. In addition, in [3] (dose 10.5 mg/kg), the “Liver Index” value was 3.57 ± 0.34 % and the “Spleen Index” value is on record as 0.24 ± 0.04 %. In data set [5] (dose 10.5 mg/kg), this compound displayed an ALT of 54.54 ± 21.40 U/L and an AST of 122.56 ± 39.18 U/L. Further, the “histological examination of rat livers (H&E)” value in [7] (setting [13]) is given as “notable alleviation in abnormal areas”.
